Measurements as given in patent US4820707A, “2,6-piperazinedione compounds” (ADIR Et Cie, priority 1986, dated 1989).
Structures can show the parent of a compound that is named as a salt.

Columns and labels:
Format in all cases: in vivo
[1] = Anxiolytic activity by the "staircase" test; parameters: key to % variation in the steps climbed: NS: not significant; settings: rats
Text: The anxiolytic activity of the compounds of the invention was investigated in rats according to the method described by Thiebot, Soubrie and Boissier in J. Pharmacol. 1976, 7, (1), p. 87-102. In this test, behavior involving rearing movements is associated with a state of distress of the animal. The number of steps climbed represents the normal exploratory behavior of the rat introduced into the enclosure. Normally, an efficacious anxiolytic compound should decrease, during the test which lasts 3 minutes, the number of rearing movements without modifying the number of steps climbed, or on the contrary should increase this latter parameter.

[2] = Anxiolytic activity by the four-plates test; settings: mice; for change in vivo at 5 mg/kg: 5 mg.kg^-1; for % increase in the responses: p.o.
Method: The anxiolytic activity of the compounds of the general formula I was investigated in mice according to the method of Aron Simon Larousse and Boissier described in Neuropharmacology (1971) 10 p. 459-469). After treatment of the animals by means of different doses of the compounds of the invention administered intraperitoneally or orally, the increase in the percentage of transitions during the exploration of the base of the test cage, in the presence of electric shocks, was assessed.

[3] = Inhibition of isolation-induced aggression in mice; settings: Mus musculus, ip, read-out: Inhibitory ED50 (effective dose inhibiting 50% of the aggressive animals)
Text: The compounds of general formula I inhibit the attacking behavior of mice rendered aggressive by isolation according to the method described by Yen, Stanger and Millman in Arch. Int. Pharmacodyn. 1959, 123, p. 179-185.

[4] = Inhibition of the active conditioned avoidance response in rats; settings: i.p.
Text: The results obtained with the compounds of general formula I during the various experiments employing the method described by Courvoisier et al. in Arch. Int. Pharmacodyn., 1953, 92, p. 305-361 and by Janssen et al. in Arzneim, Forsch, 1965, 15, p.

[5] = Inhibition of aggression in isolated and bulbectomized rats
Method: The inhibition of aggression was assessed according to the method described by Vergnes and Karli in C.R. Soc. Biol. 1963, 157, p. 1061. The effect on the aggression is assessed in terms of the percentage of animals which became non-killers after treatment.

[6] = Anxiolytic activity by MacMillan's conflict test; settings: rats, i.p., vs physiological saline; for % variation in the unpunished responses: NS (not significant); for % variation in the punished responses: S (significant)
Text: In these conditioning experiments which operate in the presence of a food reward, performed in rats according to the method described by MacMillan in Fed. Proceedings, 1975, 34, (9), p. 1870-1879, two parameters in the animal's behavioral responses are considered. The first parameter is the variation in the level of punished responses, in the presence of an electric shock, under the influence of the treatment in comparison with the level of punished responses under the influence of physiological saline. The second parameter is the variation in the level of unpunished responses, without an electric shock, under the influence of the same treatment, in comparison with the level of unpunished responses when physiological saline is administered. A specific anxiolytic effect is established when, after the administration of a substance, the level of only the punished responses is increased.

[7] = Mus musculus, ip, i.p., read-out: % increase in the responses (transitions)
[8] = Mus musculus, ip, i.p., 25 mg.kg^-1, read-out: % increase in the responses (transitions)
[9] = Mus musculus, ip, i.p., 10 mg.kg^-1, read-out: % increase in the responses (transitions)

O=C1CN(Cc2ccccc2Cl)CC(=O)N1CCCN1CCN(c2cccc(C(F)(F)F)c2)CC1 [Example 4, 4-(2-Chlorobenzyl)-1-{3-[1-(3-trifluoromethylphenyl)-4-piperazinyl]propyl}-2,6-piperazinedione dimandelate]
% variation in the rearing movements ([1]; i.p., 10 mg.kg^-1): -47% | % variation in the steps climbed ([1]; i.p., 10 mg.kg^-1): NS | change in vivo at 5 mg/kg [2, 7]: 37% | change in vivo at 25 mg/kg [2, 8]: 67% | % increase in the responses ([2]; 25 mg.kg^-1): 35% | % increase in the responses ([2]; 50 mg.kg^-1): 58%

Cl.Cl.Cl.O=C1CN(Cc2ccccc2)CC(=O)N1CCCCN1CCN(c2ncccn2)CC1 [Example 5, 4-Benzyl-1-{4-[1-(2-pyrimidinyl)-4-piperazinyl]butyl}-2,6-piperazinedione trihydrochloride]
% variation in the rearing movements ([1]; i.p., 1,25 mg.kg^-1): -40% | % variation in the steps climbed ([1]; i.p., 1,25 mg.kg^-1): NS

COc1ccccc1CN1CC(=O)N(CCCCN2CCN(c3cccc(C(F)(F)F)c3)CC2)C(=O)C1.Cl.Cl [Example 6, 4-(2-Methoxybenzyl)-1-{4-[1-(3-trifluoromethylphenyl)-4-piperazinyl]butyl}-2,6-piperazinedione dihydrochloride]
ED50 [3]: 4.74 mg/kg | change in vivo at 25 mg/kg [2, 8]: 37%

Cl.Cl.Cl.O=C1CN(Cc2ccccn2)CC(=O)N1CCCN1CCN(c2ccc(F)cc2)CC1 [Example 7, 4-(2-Pyridylmethyl)-1-{3-[1-(4-fluorophenyl)-4-piperazinyl]propyl}-2,6-piperazinedione trihydrochloride]
% ICAR (percentage inhibition of the conditioned avoidance response) ([4]; 10 mg.kg^-1): 30% | % ICAR (percentage inhibition of the conditioned avoidance response) ([4]; 15 mg.kg^-1): 48% | % ICAR (percentage inhibition of the conditioned avoidance response) ([4]; 20 mg.kg^-1): 79% | % of non-killer animals ([5]; i.p., 25 mg.kg^-1): 67%

Cl.Cl.O=C1CN(Cc2ccccc2)CC(=O)N1CCN1CCN(c2cccc(C(F)(F)F)c2)CC1 [Example 10, 4-Benzyl-1-{2-[1-(3-trifluoromethylphenyl)-4-piperazinyl]ethyl}-2,6-piperazinedione dihydrochloride]
change in vivo at 25 mg/kg [2, 8]: 85% | % of non-killer animals ([5]; i.p., 25 mg.kg^-1): 66% | % variation in the unpunished responses ([6]; 5 mg.kg^-1): +18% | % variation in the punished responses ([6]; 5 mg.kg^-1): +67%

COc1ccccc1CN1CC(=O)N(CCCN2CCN(c3ccc(C)cc3)CC2)C(=O)C1 [Example 14, 4-(2-Methoxybenzyl)-1-{3-[1-(4-methylphenyl)-4-piperazinyl]propyl}-2,6-piperazinedione]
% variation in the unpunished responses ([6]; 5 mg.kg^-1): +14% | % variation in the punished responses ([6]; 5 mg.kg^-1): +48%

COc1ccccc1CN1CC(=O)N(CCCN2CCN(c3cccc(C(F)(F)F)c3)CC2)C(=O)C1.Cl.Cl [Example 15, 4-(2-Methoxybenzyl)-1-{3-[1-(3-trifluoromethylphenyl)-4-piperazinyl]propyl}-2,6-piperazinedione dihydrochloride]
% variation in the rearing movements ([1]; i.p., 10 mg.kg^-1): -43% | % variation in the steps climbed ([1]; i.p., 10 mg.kg^-1): NS | % variation in the rearing movements ([1]; i.p., 20 mg.kg^-1): -64% | % variation in the steps climbed ([1]; i.p., 20 mg.kg^-1): NS | change in vivo at 20 mg/kg ([2]; Mus musculus, ip, i.p., 20 mg.kg^-1, read-out: % increase in the responses (transitions)): 52% | % increase in the responses ([2]; 10 mg.kg^-1): 61% | % increase in the responses ([2]; 50 mg.kg^-1): 90% | % of non-killer animals ([5]; i.p., 25 mg.kg^-1): 64% | % variation in the unpunished responses ([6]; 10 mg.kg^-1): +37% | % variation in the punished responses ([6]; 10 mg.kg^-1): +41%

COc1ccccc1CN1CC(=O)N(CCN2CCN(c3cccc(C(F)(F)F)c3)CC2)C(=O)C1 [Example 16, 4-(2-Methoxybenzyl)-1-{2-[1-(3-trifluoromethylphenyl)-4-piperazinyl]ethyl}-2,6-piperazinedione trihydrochloride]
change in vivo at 10 mg/kg [2, 9]: 41%

Cl.Cl.Cl.O=C1CN(Cc2ccccn2)CC(=O)N1CCCN1CCN(c2ccccc2Cl)CC1 [Example 17, 4-(2-Pyridylmethyl)-1-{3-[1-(2-chlorophenyl)-4-piperazinyl]propyl}-2,6-piperazinedione trihydrochloride]
ED50 [3]: 6.11 mg/kg

COc1ccccc1N1CCN(CCCN2C(=O)CN(Cc3ccccn3)CC2=O)CC1.Cl.Cl.Cl.Cl [Example 18, 4-(2-Pyridylmethyl)-1-{3-[1-(2-methoxyphenyl)-4-piperazinyl]propyl}-2,6-piperazinedione tetrahydrochloride]
% ICAR (percentage inhibition of the conditioned avoidance response) ([4]; 10 mg.kg^-1): 18% | % ICAR (percentage inhibition of the conditioned avoidance response) ([4]; 15 mg.kg^-1): 35% | % ICAR (percentage inhibition of the conditioned avoidance response) ([4]; dose not printed in this line): 56%

Cc1ccc(N2CCN(CCCN3C(=O)CN(Cc4ccccn4)CC3=O)CC2)cc1.Cl.Cl.Cl [Example 20, 4-(2-Pyridylmethyl)-1-{3-[1-(4-methylphenyl)-4-piperazinyl]propyl}-2,6-piperazinedione trihydrochloride]
% variation in the rearing movements ([1]; i.p., 2,5 mg.kg^-1): -43% | % variation in the steps climbed ([1]; i.p., 2,5 mg.kg^-1): NS

Cl.Cl.Cl.O=C1CN(Cc2cccnc2)CC(=O)N1CCCN1CCN(c2cccc(Cl)c2)CC1 [Example 22, 4-(3-Pyridylmethyl)-1-{3-[1-(3-chlorophenyl)-4-piperazinyl]propyl}-2,6-piperazinedione trihydrochloride]
change in vivo at 10 mg/kg [2, 9]: 44% | % of non-killer animals ([5]; i.p., 12,5 mg.kg^-1): 83%

Cc1ccccc1N1CCN(CCCN2C(=O)CN(C(c3ccccc3)c3ccccc3)CC2=O)CC1 [Example 23, 4-Diphenylmethyl-1-{3-[1-(2-methylphenyl)-4-piperazinyl]propyl}-2,6-piperazinedione trimethanesulfonate]
change in vivo at 10 mg/kg [2, 9]: 47% | change in vivo at 25 mg/kg [2, 8]: 77%

O=C1CN(C(c2ccccc2)c2ccccc2)CC(=O)N1CCCN1CCN(c2cccc(C(F)(F)F)c2)CC1 [Example 24, 4-Diphenylmethyl-1-{3-[1-(3-trifluoromethylphenyl)-4-piperazinyl]propyl}-2,6-piperazinedione dimandelate]
change in vivo at 25 mg/kg [2, 8]: 62%

O=C1CN(C(c2ccccc2)c2ccc(Cl)cc2)CC(=O)N1CCCN1CCN(c2cccc(C(F)(F)F)c2)CC1 (stereo not shown) [Example 26, 4-(4-Chlorodiphenylmethyl)-1-{3-[1-(3-trifluoromethylphenyl)-4-piperazinyl]propyl}-2,6-piperazinedione dicitrate]
% increase in the responses ([2]; 25 mg.kg^-1): 69%

O=C1CN(C2CCCCC2)CC(=O)N1CCCN1CCN(c2cccc(C(F)(F)F)c2)CC1 [Example 27, 4-Cyclohexyl-1-{3-[1-(3-trilfuoromethylphenyl)-4-piperazinyl]propyl}-2,6-piperazinedione dihydrochloride]
% variation in the rearing movements ([1]; i.p., 2,5 mg.kg^-1): -41% | % variation in the steps climbed ([1]; i.p., 2,5 mg.kg^-1): NS | change in vivo at 25 mg/kg [2, 8]: 73%

O=C1CN(CCCN2CCN(c3cccc(C(F)(F)F)c3)CC2)CC(=O)N1Cc1ccccc1 [Example 28, 1-Benzyl-4-{3-[1-(3-trifluoromethylphenyl)-4-piperazinyl]propyl}-2,6-piperazinedione diphosphate]
change in vivo at 25 mg/kg [2, 8]: 82%

COc1cccc(CN2C(=O)CN(CCCN3CCN(c4cccc(C(F)(F)F)c4)CC3)CC2=O)c1 [Example 29, 1-(3-Methoxybenzyl)-4-{3-[1-(3-trifluoromethylphenyl)-4-piperazinyl]propyl}-2,6-piperazinedione diphosphate]
change in vivo at 25 mg/kg [2, 8]: 49%

O=C1CN(Cc2ccccc2F)CC(=O)N1CCCN1CCN(c2ccc(C(F)(F)F)cn2)CC1 [Example 30, 4-(2-Fluorobenzyl)-1-{3-[1-(5-trifluoromethyl-2-pyridinyl)-4-piperazinyl]propyl}-2,6-piperazinedione dihydrochloride]
change in vivo at 5 mg/kg [2, 7]: 40%
